These results are taken from patent US20210308101A1, “METHODS OF TREATING FIBROMYALGIA” (Aptinyx Inc., priority 2019, published 2021).

Assay [1] has as its system resting state functional connectivity. Briefly: rs-fcMRI seed-based region of interest functional connectivity. It is filed as in vivo, human. From the text:
Resting state functional connectivity magnetic resonance imaging (rs-fcMRI) also uses noninvasive techniques to map blood flow in the brain. In rs-fcMRI, neural connections between different areas of the brain are identified by mapping regions of synchronous blood flow fluctuations. Synchronous blood fluctuations are examined to determine the strength of neural connections between different brain regions.
Resting 6-minute scans, with subjects resting comfortably in the scanner with eyes open and fixated on a crosshair, were completed at the beginning of the scan session. Whole brain BOLD rs-fcMRI data were collected following same parameters used for evoked fMRI. Physiological data were also collected simultaneously with rs-fcMRI data, as cardiorespiratory fluctuations are known to influence rs-fcMRI intrinsic connectivity estimation within several brain networks
In order to quantify intrinsic brain connectivity, rs-fcMRI data were analyzed with both dual-regression ICA and seed-voxel approaches. These approaches are complementary, as they quantify intrinsic brain connectivity on a network level (dual regression probabilistic ICA) and a more specific region-focused level (seed-voxel).
Resting state functional connectivity MRI data were preprocessed and analyzed using statistical parametric mapping software package Version 12, the CONN functional connectivity toolbox, and the GIFT toolbar, all running on MATLAB Version 9.2 or later. Upon collection of rs-fcMRI data, physiological artifacts were first removed using a custom MATLAB algorithm and slice-time corrected using Functional Magnetic Resonance Imaging of the Brain Software Library software. Preprocessing steps included motion correction, realignment, registration, normalization to standard Montreal Neurological Institute template, and smoothing (full width at half maximum Gaussian kernel of 6 or 8 mm).
Seed to whole brain functional connectivity analysis was performed using the CONN toolbox, Version 15, running on […]. […] Spheres were created (5 mm radius) around peak voxel coordinates and white matter, CSF, and motion parameters were used as covariates of no interest. Seed-based analyses were also performed using regions of interest assessed with single voxel ^1H-MRS regions showing NYX-2925 effects on Glx level. Data were band pass filtered (0.01 to 0.1 Hz) to remove linear drifts and high frequency noise. First level analysis correlated the time course from the seed to all brain voxels, creating connectivity maps for each seed region. These connectivity maps were passed up to group-level analyses comparing differences in connectivity at the visits of interest in statistical parametric mapping.
(§1) Several analyses were conducted with the fMRI resting state and task data. Results were assessed by: 1) a primary analysis, where a finding was deemed significant with a corrected cluster level p<0.05, derived from an uncorrected voxel-wise p<0.001, and 2) an exploratory analysis, where a finding was deemed significant with an uncorrected voxel-wise p<0.005 and having a cluster greater than or equal to 80 contiguous voxels. Results that met significance in the primary analyses had connectivity values extracted and imported into SPSS v25 where paired t-tests were performed to assess for potential outliers contributing to the finding. Remaining data were then correlated with clinical measures using parametric bivariate Pearson correlations. Results were deemed significant at p<0.05.
Seed-based, region of interest, functional connectivity analyses were performed (n=18) for regions that were used to acquire ^1H-MRS data: dACC, perigenual anterior cingulate cortex (pgACC), right anterior insula cortex, right posterior insula cortex, precuneus, thalamus, and medial prefrontal cortex.

In assay [2] the test system is pain-evoked brain activity. Briefly: fMRI of evoked cuff pain, BOLD activations. It is filed as in vivo, human.
Description: As used herein, “Functional Magnetic Resonance Imaging of Evoked Pain and Visual Stimulation” refers to the following procedure. During evoked pain and visual stimulation fMRI paradigms, participants were lying in the scanner as they received either pressure stimulation to their calf muscle or they experienced an unpleasant visual stimulus. For both pain and visual stimulation, whole-brain Blood Oxygenation Level Dependent (BOLD) functional images were acquired.
Each subject underwent a 12-minute block design scan, during which 3 cuff pressure levels (2 equal pressures=15 to 30 and 100 to 115 mmHg; and 1 equal pain=40 to 60/100 numerical rating scale [NRS] units) were applied to the left calf […] using the pressure cuff device in pseudo-random order for a total of 12 pressure stimulations. Pressure levels for each subject were determined during the QST assessment. Each pressure stimulus was applied for 14 seconds. Prior to each pressure stimulus, a 4-second visual cue was presented to signal upcoming cuff pressure to limit any stimulus-onset startle reflex. Subjects' head motion was minimized using foam pads around the head, and a strap secured across the forehead.
As with functional connectivity analyses, pre-processing of images occurs using SPM12. The first 5 images were discarded from the data set and not used for further analysis in order to correct for equilibration effects. Pre-processing steps included: physio-correction, motion correction, coregistration, normalization, and smoothing (FWHM 6 or 8 mm). First level analyses were performed using the general linear model (GLM) implemented in SPM12. Motion parameters from re-alignment were modelled as regressors of no interest. Pain and visual blocks were convolved with a canonical hemodynamic response function and contrasted with rest blocks of no stimulation. These activation maps were then passed up to group-level analyses comparing differences in activations at the analysis visits of interest in SPM. Resulting maps were set at an uncorrected voxel threshold of p<0.001, with p<0.05 FDR or FWE significance corrected for multiple comparisons. The primary analyses were a paired sample t-tests between placebo images and NYX-2925 images (either 20 or 200 mg).
as §1

The mark [3] stands for this setting: exploratory, placebo visit to NYX-2925 20 mg visit.
[4] abbreviates: exploratory, placebo visit to NYX-2925 200 mg visit.

Molecules are shown by their SMILES. Entries after “also recorded” stand apart in the source; their conditions may differ.

Take `CC(C)C(=O)N1CCC[C@]12CN([C@H](C(N)=O)[C@@H](C)O)C2=O` [NYX-2925, (2S, 3R)-3-hydroxy-2-((R)-5-isobutyryl-1-oxo-2,5-diazaspiro[3.4]octan-2-yl)butanamide]: the “connectivity right anterior insula cortex seed - right ventral anterior thalamic nucleus” value in assay [1] (baseline visit to NYX-2925 200 mg visit, PFWE=0.018) is “decreased”. Further, the “connectivity right posterior insula cortex seed - dACC” value in assay [1] (exploratory analysis, placebo visit to NYX-2925 20 mg visit) was “decrease in connectivity”. Also, in assay [1] (exploratory, baseline visit to NYX-2925 20 mg visit), the “connectivity precuneus - right anterior insula and left dACC” value is “decreased”. Moreover, in assay [1] (setting [3]), the “connectivity precuneus - right mid cingulate cortex” value was “Decreases in resting state functional connectivity”. In addition, in assay [1] (setting [4]), the “connectivity precuneus seed - right posterior/mid cingulate cortex” value is recorded as “decreased”; the “connectivity thalamus seed - right anterior prefrontal cortex and bilateral precuneus” value was “decreases in connectivity”. In assay [1] (placebo to NYX-2925 20 mg, not meeting cluster level correction significance), the “functional connectivity dACC seed - right posterior insula cortex” value is given as “decreased connectivity”. Besides, the “functional connectivity pgACC seed - left precuneus/precentral gyrus” value in assay [1] (placebo visit to NYX-2925 20 mg visit, PFWE<0.00001) is reported as “decreased”. The “connectivity medial prefrontal cortex seed - right anterior prefrontal cortex and right mid cingulate cortex” value in assay [1] (placebo visit to NYX-2925 200 mg visit, PFWE=0.003 and 0.036) is reported as “Decreases were also observed”. In addition, the “functional connectivity pgACC seed - right inferior frontal gyrus” value in assay [1] (placebo visit to NYX-2925 200 mg visit, PFWE=0.008) was “decreased”. Further, in assay [1] (primary analyses), the “connectivity of precuneus seed” value is given as “no significant results” and the “connectivity of right posterior insula cortex seed” value is “no significant findings”. The “connectivity thalamus seed - bilateral cuneus” value in assay [1] (primary analysis, baseline visit to NYX-2925 200 mg visit, PFWE<0.00001) is on record as “significant decrease in resting state connectivity”. Besides, the “functional connectivity of dACC seed to right superior temporal gyrus, left premotor/primary somatosensory cortex, right precuneus, left precentral gyrus/premotor cortex” value in assay [1] (primary analysis, placebo visit to NYX-2925 20 mg visit, PFWE 0.030-0.049) is listed as “reduced connectivity; also recorded: decreased functional connectivity”. Further, the “connectivity medial prefrontal cortex seed - right anterior prefrontal/dorsolateral prefrontal cortex” value in assay [1] (primary, baseline visit to NYX-2925 200 mg visit, PFWE=0.001) is on record as “Significant decreases in resting state connectivity”. Moreover, in assay [2] (200 mg dose vs placebo, FIGS. 4A, 4B), the “pain-evoked brain activity in brain imaging, subject 1” value was “reduced pain-related brain activity”. Also, the “pain-evoked brain activity in brain imaging, subject 2” value in assay [2] (200 mg dose vs placebo, FIGS. 4C, 4D) is on record as “reduction in pain-related brain activity”. In addition, the “BOLD activations in right mid cingulate cortex and left primary somatosensory cortex/supplementary motor area” value in assay [2] (setting [3]) was “decreased”. In addition, in assay [2] (setting [4]), the “BOLD activations in right putamen/insula, bilateral primary somatosensory/cingulate cortex, left putamen, left posterior insula” value is reported as “decreased”. The “BOLD activations, evoked cuff pain task (Pain50 pressure > rest)” value in assay [2] (primary analyses) is “No significant BOLD activations”.
